Values quoted from earlier work as cited in patent US8053463B2, “PPAR active compounds” (Plexxikon Inc., priority 2007, dated 2011).

Assays:
PPARδ = target: T1, PPARδ (Homo sapiens, UniProt Q03181)
T1 sequence (Q03181 1-441): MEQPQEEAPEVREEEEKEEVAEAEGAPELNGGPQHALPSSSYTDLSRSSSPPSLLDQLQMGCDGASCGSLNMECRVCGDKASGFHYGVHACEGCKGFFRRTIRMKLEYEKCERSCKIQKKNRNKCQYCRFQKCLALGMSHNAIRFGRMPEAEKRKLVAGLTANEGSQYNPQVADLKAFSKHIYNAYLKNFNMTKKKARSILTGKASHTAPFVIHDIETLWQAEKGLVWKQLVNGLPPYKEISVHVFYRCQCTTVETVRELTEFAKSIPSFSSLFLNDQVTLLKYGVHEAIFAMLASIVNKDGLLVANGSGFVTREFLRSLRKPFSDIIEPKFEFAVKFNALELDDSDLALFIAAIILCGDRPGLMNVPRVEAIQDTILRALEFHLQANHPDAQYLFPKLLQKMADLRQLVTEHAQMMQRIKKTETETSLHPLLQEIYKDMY

murine PPARα = target: T2, murine PPARα (Mus musculus, UniProt P23204)
T2 sequence (P23204 1-468): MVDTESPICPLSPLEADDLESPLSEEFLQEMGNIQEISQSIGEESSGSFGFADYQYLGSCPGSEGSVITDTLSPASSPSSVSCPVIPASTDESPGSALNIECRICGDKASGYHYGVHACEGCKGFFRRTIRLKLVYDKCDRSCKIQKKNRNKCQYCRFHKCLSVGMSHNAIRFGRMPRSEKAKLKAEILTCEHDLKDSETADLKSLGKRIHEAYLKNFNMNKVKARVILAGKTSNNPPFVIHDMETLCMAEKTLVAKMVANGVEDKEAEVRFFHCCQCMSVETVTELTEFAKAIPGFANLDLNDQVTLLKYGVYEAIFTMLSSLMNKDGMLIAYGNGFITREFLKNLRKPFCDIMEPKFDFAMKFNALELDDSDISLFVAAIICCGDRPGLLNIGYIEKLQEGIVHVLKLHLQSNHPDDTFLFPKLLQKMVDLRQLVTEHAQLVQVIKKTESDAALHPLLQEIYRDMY

SMILES: CCCc1c(OCCCOc2ccc(OCC(=O)O)cc2)ccc(C(C)=O)c1O [Compound L-165041]
- agonist selectivity for PPARδ over PPARγ (PPARδ): approximately 30 fold
- activity on murine PPARα (murine PPARα): inactive
